Data reported in ChEMBL document CHEMBL5365473, “Novel Sulfonylurea-Based NLRP3 Inflammasome Inhibitor for Efficient Treatment of Nonalcoholic Steatohepatitis, Endotoxic Shock, and Colitis” (J Med Chem, 2023).
The source made the active and inactive calls. The calls are words filed in the database; no cut-off is given here.

What was measured:
[1] = biological target: NACHT, LRR and PYD domains-containing protein 3 (Mus musculus, UniProt Q8R4B8); test: Inhibition of NLRP3 inflammasome in mouse […] cells assessed as inhibition of LPS/ATP-induced IL-1 beta secretion primed with LPS for 4.5 hs followed by incubation with compound for 30 mins and later stimulation with ATP for 30 mins by ELISA; format: cell-based, J774.A1
[2] = Effect on immune cell numbers in MCS diet-fed C57BL/6 mouse assessed as effect on CD45 expression at 40 mg/kg, po administered via gavage for 5 weeks by immunofluorescence staining based analysis; format: toxicity, organism-based; conditions: in vivo, 840 h
[3] = Effect on immune cell numbers in MCS diet-fed C57BL/6 mouse assessed as effect on F4/80 expression at 40 mg/kg, po administered via gavage for 5 weeks by immunofluorescence staining based analysis; format: toxicity, organism-based; conditions: in vivo, 840 h
Mus musculus [4] = test: Antiinflammatory activity against MCD diet-induced NASH C57BL/6 mouse model assessed as reduction in liver fibrosis at 40 mg/kg, po administered via gavage for 5 weeks by Masson's trichrome staining based analysis; format: functional, organism-based
Mus musculus [5] = test: Antiinflammatory activity against MCD diet-induced NASH C57BL/6 mouse model assessed as reduction in balloon dilatation in liver at 40 mg/kg, po administered via gavage for 5 weeks by Masson's trichrome staining based analysis; format: functional, organism-based
Mus musculus [6] = test: Antiinflammatory activity against MCD diet-induced NASH C57BL/6 mouse model assessed as reduction in liver steatosis at 40 mg/kg, po administered via gavage for 5 weeks by Masson's trichrome staining based analysis; format: functional, organism-based
Mus musculus [7] = test: Antiinflammatory activity against MCD diet-induced NASH C57BL/6 mouse model assessed as improvement in liver morphology at 40 mg/kg, po administered via gavage for 5 weeks by Masson's trichrome staining based analysis; format: functional, organism-based
Mus musculus [8] = test: Antiinflammatory activity against MCD diet-induced NASH C57BL/6 mouse model assessed as reduction in liver fibrosis at 40 mg/kg, po administered via gavage for 5 weeks by Sirius red staining based analysis; format: functional, organism-based
Mus musculus [9] = test: Antiinflammatory activity against MCD diet-induced NASH C57BL/6 mouse model assessed as reduction in balloon dilatation in liver at 40 mg/kg, po administered via gavage for 5 weeks by Sirius red staining based analysis; format: functional, organism-based
Mus musculus [10] = test: Antiinflammatory activity against MCD diet-induced NASH C57BL/6 mouse model assessed as reduction in liver steatosis at 40 mg/kg, po administered via gavage for 5 weeks by Sirius red staining based analysis; format: functional, organism-based
Mus musculus [11] = test: Antiinflammatory activity against DSS-induced ulcerative colitis C57BL/6 mouse assessed as reduction in inflammatory cells infiltration in lamina propria in colon at 10 mg/kg, ip administered for 9 days and measured on day 10 by H and E staining based analysis; format: functional, organism-based; conditions: time 10.0 day
L02 = test: Cytotoxicity against human HL7702 cells assessed as reduction in cell viability at 200 uM measured after 24 hrs by CCK8 assay; format: toxicity, cell-based; conditions: l02, 24 h
Hepatocyte = test: Cytotoxicity against mouse primary hepatic cells assessed as reduction in cell viability at 200 uM measured after 24 hrs by CCK8 assay; format: toxicity, cell-based; conditions: hepatocytes
[12] = Half life in C57BL/6 mouse at 20 mg/kg, po by LC-MS/MS analysis; format: ADME, organism-based; conditions: in vivo
[13] = Oral bioavailability in C57BL/6 mouse at 20 mg/kg by LC-MS/MS analysis; format: ADME, organism-based; conditions: in vivo
Mus musculus [14] = test: Antiinflammatory activity against MCD diet-induced NASH C57BL/6 mouse model assessed as protection against MCD diet-induced increase in liver to body weight ratio at 40 mg/kg, po administered via gavage for 5 weeks; format: functional, organism-based
Mus musculus [15] = test: Antiinflammatory activity against MCD diet-induced NASH C57BL/6 mouse model assessed as improvement in liver morphology at 40 mg/kg, po administered via gavage for 5 weeks by H and E staining based analysis; format: functional, organism-based
Mus musculus [16] = test: Antiinflammatory activity against MCD diet-induced NASH C57BL/6 mouse model assessed as reduction in liver steatosis at 40 mg/kg, po administered via gavage for 5 weeks by H and E staining based analysis; format: functional, organism-based
Mus musculus [17] = test: Antiinflammatory activity against MCD diet-induced NASH C57BL/6 mouse model assessed as reduction in balloon dilatation in liver at 40 mg/kg, po administered via gavage for 5 weeks by H and E staining based analysis; format: functional, organism-based
Mus musculus [18] = test: Antiinflammatory activity against MCD diet-induced NASH C57BL/6 mouse model assessed as reduction in liver fibrosis at 40 mg/kg, po administered via gavage for 5 weeks by H and E staining based analysis; format: functional, organism-based
Mus musculus [19] = test: Antiinflammatory activity against MCD diet-induced NASH C57BL/6 mouse model assessed as improvement in liver morphology at 40 mg/kg, po administered via gavage for 5 weeks by Sirius red staining based analysis; format: functional, organism-based
Mus musculus [20] = test: Antiinflammatory activity against MCD diet-induced NASH C57BL/6 mouse model assessed as reduction in TUNEL-positive hepatic cells at 40 mg/kg, po administered via gavage for 5 weeks by TUNEL assay; format: functional, organism-based
Mus musculus [21] = test: Antiinflammatory activity against MCD diet-induced NASH C57BL/6 mouse model assessed as reduction in immune cell infiltration by measuring reduction in F4/80-positive hepatic cells at 40 mg/kg, po administered via gavage for 5 weeks by immunofluorescence staining based analysis; format: functional, organism-based
Mus musculus [22] = test: Antiinflammatory activity against MCD diet-induced NASH C57BL/6 mouse model assessed as reduction in immune cell infiltration by measuring reduction in CD45-positive hepatic cells at 40 mg/kg, po administered via gavage for 5 weeks by immunofluorescence staining based analysis; format: functional, organism-based
Mus musculus [23] = test: Antiinflammatory activity against LPS-induced lethal septic shock C57BL/6 mouse model assessed as increase in animal's survival rate at 40 mg/kg, ip administered for 1 hr prior to LPS challenge and measured for 72 hrs; format: functional; conditions: time 73 hrs
Mus musculus [24] = test: Antiinflammatory activity against LPS-induced lethal septic shock C57BL/6 mouse model assessed as increase in animal's survival rate at 20 mg/kg, ip administered for 1 hr prior to LPS challenge and measured for 72 hrs; format: functional; conditions: time 73 hrs
Mus musculus [25] = test: Antiinflammatory activity against LPS-induced lethal septic shock C57BL/6 mouse model assessed as reduction in serum IL-1 beta level at 20 to 40 mg/kg, ip administered for 1 hr prior to LPS challenge and measured after 2.5 hrs by ELISA; format: functional, organism-based; conditions: dose 20-40 mg/kg, time 3.5 hrs
Mus musculus [26] = test: Antiinflammatory activity against LPS-induced lethal septic shock C57BL/6 mouse model assessed as effect on TNF-alpha level at 40 mg/kg, ip administered for 1 hr prior to LPS challenge and measured after 2.5 hrs by ELISA; format: functional, organism-based; conditions: time 3.5 hrs
Mus musculus [27] = test: Antiinflammatory activity against DSS-induced ulcerative colitis C57BL/6 mouse assessed as reduction in body weight loss at 10 mg/kg, ip administered for 9 days and measured daily; format: functional, organism-based; conditions: time 9.0 day
Mus musculus [28] = test: Antiinflammatory activity against DSS-induced ulcerative colitis C57BL/6 mouse assessed as reduction in colon length shortening at 10 mg/kg, ip administered for 9 days and measured on day 10; format: functional, organism-based; conditions: time 10.0 day
Mus musculus [29] = test: Antiinflammatory activity against DSS-induced ulcerative colitis C57BL/6 mouse assessed as reduction in mucosal barrier disruption in colon at 10 mg/kg, ip administered for 9 days and measured on day 10 by H and E staining based analysis; format: functional, organism-based; conditions: time 10.0 day
Mus musculus [30] = test: Antiinflammatory activity against DSS-induced ulcerative colitis C57BL/6 mouse assessed as reduction in crypt necrosis in colon at 10 mg/kg, ip administered for 9 days and measured on day 10 by H and E staining based analysis; format: functional, organism-based; conditions: time 10.0 day
Mus musculus [31] = test: Antiinflammatory activity against DSS-induced ulcerative colitis C57BL/6 mouse assessed as reduction in massive loss of goblet cells in colon at 10 mg/kg, ip administered for 9 days and measured on day 10 by H and E staining based analysis; format: functional, organism-based; conditions: time 10.0 day
[32] = biological target: NACHT, LRR and PYD domains-containing protein 3 (Mus musculus) (UniProt Q8R4B8); conditions: J774.A1, dose 30.0 nM, time 3.0 hrs
[33] = biological target: NACHT, LRR and PYD domains-containing protein 3 (Mus musculus) (UniProt Q8R4B8); conditions: J774.A1, dose 30.0 nM, time 3.0 hrs; remark: listed apart in the source

Sequence of NACHT, LRR and PYD domains-containing protein 3 (Q8R4B8 whole entry, the tested form may be a part): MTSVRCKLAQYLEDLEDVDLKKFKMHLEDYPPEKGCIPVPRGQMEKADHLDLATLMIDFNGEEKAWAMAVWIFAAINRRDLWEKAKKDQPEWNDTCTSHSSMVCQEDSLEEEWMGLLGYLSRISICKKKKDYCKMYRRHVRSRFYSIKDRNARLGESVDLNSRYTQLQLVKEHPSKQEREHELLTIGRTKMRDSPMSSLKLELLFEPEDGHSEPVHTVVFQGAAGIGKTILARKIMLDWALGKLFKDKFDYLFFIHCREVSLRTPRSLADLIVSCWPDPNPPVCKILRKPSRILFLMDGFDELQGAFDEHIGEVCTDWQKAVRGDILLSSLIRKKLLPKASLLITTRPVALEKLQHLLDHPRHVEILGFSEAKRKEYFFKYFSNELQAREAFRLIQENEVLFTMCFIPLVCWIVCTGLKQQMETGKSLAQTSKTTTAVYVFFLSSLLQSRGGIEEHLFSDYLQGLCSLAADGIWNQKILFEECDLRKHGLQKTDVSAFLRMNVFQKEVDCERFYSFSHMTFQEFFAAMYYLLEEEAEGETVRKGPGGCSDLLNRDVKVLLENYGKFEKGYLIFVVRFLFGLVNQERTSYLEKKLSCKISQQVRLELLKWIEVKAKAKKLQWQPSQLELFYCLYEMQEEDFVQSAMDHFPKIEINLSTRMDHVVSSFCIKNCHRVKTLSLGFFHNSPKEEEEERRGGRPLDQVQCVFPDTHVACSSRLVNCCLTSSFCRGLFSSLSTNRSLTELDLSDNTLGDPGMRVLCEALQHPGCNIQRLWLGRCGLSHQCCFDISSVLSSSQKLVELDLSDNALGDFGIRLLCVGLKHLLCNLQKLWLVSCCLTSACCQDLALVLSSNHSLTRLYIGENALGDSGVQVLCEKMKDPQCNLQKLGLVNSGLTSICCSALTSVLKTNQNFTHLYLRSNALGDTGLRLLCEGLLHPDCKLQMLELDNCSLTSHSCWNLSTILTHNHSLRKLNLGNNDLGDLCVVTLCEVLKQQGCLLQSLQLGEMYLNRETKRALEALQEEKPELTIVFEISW
Sequence of NACHT, LRR and PYD domains-containing protein 3 (Mus musculus) (Q8R4B8 whole entry, the tested form may be a part): as above

Compound `CN(C)Cc1cccc(S(=O)(=O)NC(=O)Nc2c3c(cc4c2CCC4)CCC3)c1` has an IC50 [1] of 168 nM.
In the case of `CC(C)c1cccc(C(C)C)c1CC(=O)NS(=O)(=O)c1ccc(CN(C)C)cc1`, the IC50 [1] is reported as 1860 nM.
For `CC(C)(O)c1coc(S(=O)(=O)NC(=O)Nc2c3c(cc4c2CCC4)CCC3)c1`, the Activity [2] was “Non-Toxic”, the Activity [3] was “Non-Toxic” and the Activity (Mus musculus [4]) was “Active”. For the same compound, the Activity (Mus musculus [5]) was “Active”, the Activity (Mus musculus [6]) was “Active” and the Activity (Mus musculus [7]) was “Active”. For the same compound, the Activity (Mus musculus [8]) was “Active”, the Activity (Mus musculus [9]) was “Active” and the Activity (Mus musculus [10]) was “Active”. For the same compound, the Activity (Mus musculus [11]) was “Active”, the IC50 [1] was 14 nM and the Activity (L02) was “Toxic”. The Activity (Hepatocyte) was “Toxic”, the half-life [12] was 1.32 h and the bioavailability [13] was 85.2%. For the same compound, the Activity (Mus musculus [14]) was “Active”, the Activity (Mus musculus [15]) was “Active” and the Activity (Mus musculus [16]) was “Active”. For the same compound, the Activity (Mus musculus [17]) was “Active”, the Activity (Mus musculus [18]) was “Active” and the Activity (Mus musculus [19]) was “Active”. For the same compound, the Activity (Mus musculus [20]) was “Active”, the Activity (Mus musculus [21]) was “inactive” and the Activity (Mus musculus [22]) was “inactive”. For the same compound, the survival at 40 mg/kg (Mus musculus [23]) was 60%, the survival at 20 mg/kg (Mus musculus [24]) was 20% and the Activity (Mus musculus [25]) was “Active”. The Activity (Mus musculus [26]) was “inactive”, the Activity (Mus musculus [27]) was “Active” and the Activity (Mus musculus [28]) was “Active”. The Activity (Mus musculus [29]) was “Active”, the Activity (Mus musculus [30]) was “Active” and the Activity (Mus musculus [31]) was “Active”. For the same compound, the inhibition [32] was “Active” and the inhibition [33] was “Active”.
`CN(C)Cc1cc(S(=O)(=O)NC(=O)Nc2c3c(cc4c2CCC4)CCC3)ccn1` showed an IC50 [1] of 1680 nM.
Compound `Cc1cc(C)cc(NC(=O)NS(=O)(=O)c2ccc(CN(C)C)cc2)c1` has an IC50 [1] of over 10000 nM.
Compound `CC(C)(O)c1cc(Br)cc(S(=O)(=O)NC(=O)Nc2c3c(cc4c2CCC4)CCC3)c1` has an IC50 [1] of over 20000 nM.
In the case of `CCN(C)Cc1ccc(S(=O)(=O)NC(=O)Nc2c3c(cc4c2CCC4)CCC3)cc1`, the IC50 [1] is reported as 63 nM.
Compound `CN(C)c1ccc(-c2c3c(c(NC(=O)NS(=O)(=O)c4cc(C(C)(C)O)co4)c4c2CCC4)CCC3)cc1` has an IC50 [1] of over 5000 nM.
In the case of `CCCCCN(C)Cc1ccc(S(=O)(=O)NC(=O)Nc2c3c(cc4c2CCC4)CCC3)cc1`, the IC50 [1] is reported as 1730 nM.
`CN(C)C(=O)c1cccc(S(=O)(=O)NC(=O)Nc2c3c(cc4c2CCC4)CCC3)c1` gave an IC50 [1] of 691 nM.
`CCc1cccc(CC)c1NC(=O)NS(=O)(=O)c1ccc(CN(C)C)cc1` showed an IC50 [1] of over 10000 nM.
Compound `COC1CN(Cc2cccc(S(=O)(=O)NC(=O)Nc3c4c(cc5c3CCC5)CCC4)c2)C1` has an IC50 [1] of 5000 nM.
For `CCCCN(C)Cc1ccc(S(=O)(=O)NC(=O)Nc2c3c(cc4c2CCC4)CCC3)cc1`, the IC50 [1] was over 10000 nM.
`CC(C)(C)OC(=O)Nc1ccc(-c2c3c(c(NC(=O)NS(=O)(=O)c4cc(C(C)(C)O)co4)c4c2CCC4)CCC3)cc1` showed an IC50 [1] of over 5000 nM.
In the case of `CC(C)c1cccc(C(C)C)c1NC(=O)NS(=O)(=O)c1ccc(CN(C)C)cc1`, the IC50 [1] is reported as 138 nM.
